Activity calls are given as the source filed them. No cut-off for these calls is given here.
What was measured:
Format in all cases: functional
[1] = tested on: RXF 393; assay: Growth inhibition of human RXF393 cells at 10^-5 M incubated for 48 hrs by sulforhodamine B assay relative to control
[2] = tested on: Candida albicans; assay: Antifungal activity against Candida albicans at 100 ug/ml by disc diffusion method; conditions: read-out: IZ
[3] = tested on: DU-145; assay: Growth inhibition of human DU145 cells at 10^-5 M incubated for 48 hrs by sulforhodamine B assay relative to control
[4] = tested on: SN12C; assay: Growth inhibition of human SN12C cells at 10^-5 M incubated for 48 hrs by sulforhodamine B assay relative to control
[5] = tested on: IGROV-1; assay: Growth inhibition of human IGROV1 cells at 10^-5 M incubated for 48 hrs by sulforhodamine B assay relative to control
[6] = tested on: UACC-62; assay: Growth inhibition of human UACC62 cells at 10^-5 M incubated for 48 hrs by sulforhodamine B assay relative to control
[7] = tested on: SW-620; assay: Growth inhibition of human SW620 cells at 10^-5 M incubated for 48 hrs by sulforhodamine B assay relative to control
[8] = tested on: NCI-H23; assay: Growth inhibition of human NCI-H23 cells at 10^-5 M incubated for 48 hrs by sulforhodamine B assay relative to control
[9] = tested on: K562; assay: Growth inhibition of human K562 cells at 10^-5 M incubated for 48 hrs by sulforhodamine B assay relative to control
[10] = tested on: ACHN; assay: Growth inhibition of human ACHN cells at 10^-5 M incubated for 48 hrs by sulforhodamine B assay relative to control
[11] = tested on: NCI-H460; assay: Growth inhibition of human NCI-H460 cells at 10^-5 M incubated for 48 hrs by sulforhodamine B assay relative to control
[12] = tested on: TK-10; assay: Growth inhibition of human TK10 cells at 10^-5 M incubated for 48 hrs by sulforhodamine B assay relative to control
[13] = tested on: OVCAR-8; assay: Growth inhibition of human OVCAR8 cells at 10^-5 M incubated for 48 hrs by sulforhodamine B assay relative to control

**Q.** How did the “growth inhibition (GI)” value [1] turn out when `COc1ccc2nc(Cl)c(Cn3nnnc3CSc3ccccc3)cc2c1` was run?
**A.** Its value is “Active”.

**Q.** What about the zone of inhibition at 100 µg/mL [2] of the same compound?
**A.** Its zone of inhibition at 100 µg/mL is 18 mm.

**Q.** What about the “growth inhibition (GI)” value [3] of the same compound?
**A.** The value was “Active”.

**Q.** What about the “growth inhibition (GI)” value [4] of the same compound?
**A.** Its value is “Active”.

**Q.** And the “growth inhibition (GI)” value [5]?
**A.** Its value is “Active”.

**Q.** And the “growth inhibition (GI)” value [6]?
**A.** The value was “Active”.

**Q.** And the “growth inhibition (GI)” value [7]?
**A.** The value was “Active”.

**Q.** What about the “growth inhibition (GI)” value [8] of the same compound?
**A.** The value was “Active”.

**Q.** And the “growth inhibition (GI)” value [9]?
**A.** Its value is “Active”.

**Q.** And the “growth inhibition (GI)” value [10]?
**A.** Its value is “Active”.

**Q.** And the “growth inhibition (GI)” value [11]?
**A.** The value was “Active”.

**Q.** What about the “growth inhibition (GI)” value [12] of the same compound?
**A.** The value was “Active”.

**Q.** What about the “growth inhibition (GI)” value [13] of the same compound?
**A.** The value was “Active”.

**Q.** `Cc1ccc2nc(Cl)c(Cn3nnc(CSc4ccccc4)n3)cc2c1` was tested. Which “growth inhibition (GI)” value [1] did it give?
**A.** The value was “Active”.

**Q.** And the zone of inhibition at 100 µg/mL [2]?
**A.** The zone of inhibition at 100 µg/mL was 12 mm.

**Q.** What about the “growth inhibition (GI)” value [3] of the same compound?
**A.** The value was “Active”.

**Q.** And the “growth inhibition (GI)” value [4]?
**A.** Its value is “Active”.

**Q.** And the “growth inhibition (GI)” value [5]?
**A.** The value was “Active”.

**Q.** And the “growth inhibition (GI)” value [6]?
**A.** Its value is “Active”.

**Q.** And the “growth inhibition (GI)” value [7]?
**A.** The value was “Active”.

**Q.** What about the “growth inhibition (GI)” value [8] of the same compound?
**A.** The value was “Active”.

**Q.** What about the “growth inhibition (GI)” value [9] of the same compound?
**A.** The value was “Active”.

**Q.** And the “growth inhibition (GI)” value [10]?
**A.** Its value is “Active”.

**Q.** And the “growth inhibition (GI)” value [11]?
**A.** The value was “Active”.

**Q.** And the “growth inhibition (GI)” value [12]?
**A.** Its value is “Active”.

**Q.** And the “growth inhibition (GI)” value [13]?
**A.** The value was “Active”.

**Q.** `Cc1ccc2nc(Cl)c(Cn3nnnc3Cc3ccccc3)cc2c1` was tested. Which “growth inhibition (GI)” value [1] did it give?
**A.** Its value is “Active”.

**Q.** What about the zone of inhibition at 100 µg/mL [2] of the same compound?
**A.** The zone of inhibition at 100 µg/mL was 10 mm.

**Q.** What about the “growth inhibition (GI)” value [3] of the same compound?
**A.** Its value is “Active”.

**Q.** What about the “growth inhibition (GI)” value [4] of the same compound?
**A.** Its value is “Active”.

**Q.** And the “growth inhibition (GI)” value [5]?
**A.** Its value is “Active”.

**Q.** What about the “growth inhibition (GI)” value [6] of the same compound?
**A.** The value was “Active”.

**Q.** What about the “growth inhibition (GI)” value [7] of the same compound?
**A.** The value was “Active”.

**Q.** What about the “growth inhibition (GI)” value [8] of the same compound?
**A.** Its value is “Active”.

**Q.** And the “growth inhibition (GI)” value [9]?
**A.** Its value is “Active”.

**Q.** And the “growth inhibition (GI)” value [10]?
**A.** The value was “Active”.

**Q.** What about the “growth inhibition (GI)” value [11] of the same compound?
**A.** Its value is “Active”.

**Q.** And the “growth inhibition (GI)” value [12]?
**A.** The value was “Active”.

**Q.** What about the “growth inhibition (GI)” value [13] of the same compound?
**A.** Its value is “Active”.

**Q.** With `Clc1nc2ccccc2cc1Cn1nnc(CSc2ccccc2)n1` as the compound, how does the “growth inhibition (GI)” value [1] read?
**A.** The value was “Active”.

**Q.** And the zone of inhibition at 100 µg/mL [2]?
**A.** Its zone of inhibition at 100 µg/mL is 10 mm.

**Q.** And the “growth inhibition (GI)” value [3]?
**A.** Its value is “Active”.

**Q.** What about the “growth inhibition (GI)” value [4] of the same compound?
**A.** Its value is “Active”.

**Q.** And the “growth inhibition (GI)” value [5]?
**A.** The value was “Active”.

**Q.** And the “growth inhibition (GI)” value [6]?
**A.** Its value is “Active”.

**Q.** And the “growth inhibition (GI)” value [7]?
**A.** The value was “Active”.

**Q.** And the “growth inhibition (GI)” value [8]?
**A.** Its value is “Active”.

**Q.** And the “growth inhibition (GI)” value [9]?
**A.** The value was “Active”.

**Q.** And the “growth inhibition (GI)” value [10]?
**A.** Its value is “Active”.

**Q.** And the “growth inhibition (GI)” value [11]?
**A.** The value was “Active”.

**Q.** What about the “growth inhibition (GI)” value [12] of the same compound?
**A.** Its value is “Active”.

**Q.** And the “growth inhibition (GI)” value [13]?
**A.** The value was “Active”.

**Q.** What does the source list for `Clc1nc2ccccc2cc1Cn1nnc(Cc2ccccc2)n1`?
**A.** inhibition of growth at 10 µM ([1]; RXF 393, 48 h, read-out: GI): 16.1%; zone of inhibition at 100 µg/mL [2]: 10 mm; inhibition of growth at 10 µM ([3]; DU-145, 48 h, read-out: GI): 24.8%; inhibition of growth at 10 µM ([4]; read-out: GI): 29.7%; inhibition of growth at 10 µM ([5]; IGROV-1, 48 h, read-out: GI): 49.1%; inhibition of growth at 10 µM ([6]; UACC-62, 48 h, read-out: GI): 48.3%; inhibition of growth at 10 µM ([7]; SW-620, 48 h, read-out: GI): 13.4%; inhibition of growth at 10 µM ([8]; NCI-H23, 48 h, read-out: GI): 54.5%; inhibition of growth at 10 µM ([9]; K562, 48 h, read-out: GI): 44.8%; inhibition of growth at 10 µM ([10]; read-out: GI): 47.8%; inhibition of growth at 10 µM ([11]; NCI-H460, 48 h, read-out: GI): 25.7%; inhibition of growth at 10 µM ([12]; TK-10, 48 h, read-out: GI): 39.1%; inhibition of growth at 10 µM ([13]; OVCAR-8, 48 h, read-out: GI): 28.4%

**Q.** How did the “growth inhibition (GI)” value [1] turn out when `Fc1ccc2nc(Cl)c(Cn3nnnc3Cc3ccccc3)cc2c1` was run?
**A.** Its value is “Active”.

**Q.** What about the zone of inhibition at 100 µg/mL [2] of the same compound?
**A.** The zone of inhibition at 100 µg/mL was 13 mm.

**Q.** And the “growth inhibition (GI)” value [3]?
**A.** Its value is “Active”.

**Q.** What about the “growth inhibition (GI)” value [4] of the same compound?
**A.** Its value is “Active”.

**Q.** What about the “growth inhibition (GI)” value [5] of the same compound?
**A.** Its value is “Active”.

**Q.** And the “growth inhibition (GI)” value [6]?
**A.** The value was “Active”.

**Q.** And the “growth inhibition (GI)” value [7]?
**A.** Its value is “Active”.

**Q.** And the “growth inhibition (GI)” value [8]?
**A.** The value was “Active”.

**Q.** And the “growth inhibition (GI)” value [9]?
**A.** Its value is “Active”.

**Q.** And the “growth inhibition (GI)” value [10]?
**A.** Its value is “Active”.

**Q.** What about the “growth inhibition (GI)” value [11] of the same compound?
**A.** The value was “Active”.

**Q.** What about the “growth inhibition (GI)” value [12] of the same compound?
**A.** Its value is “Active”.

**Q.** What about the “growth inhibition (GI)” value [13] of the same compound?
**A.** The value was “Active”.

**Q.** What does the source list for `Fc1ccc2nc(Cl)c(Cn3nnc(CSc4ccccc4)n3)cc2c1`?
**A.** growth inhibition (GI) [1]: Active; zone of inhibition at 100 µg/mL [2]: 18 mm; growth inhibition (GI) [3]: Active; growth inhibition (GI) [4]: Active; growth inhibition (GI) [5]: Active; growth inhibition (GI) [6]: Active; growth inhibition (GI) [7]: Active; growth inhibition (GI) [8]: Active; growth inhibition (GI) [9]: Active; growth inhibition (GI) [10]: Active; growth inhibition (GI) [11]: Active; growth inhibition (GI) [12]: Active; growth inhibition (GI) [13]: Active

**Q.** For `COc1ccc2nc(Cl)c(Cn3nnnc3Cc3ccccc3)cc2c1`, which “growth inhibition (GI)” value [1] is on record?
**A.** The value was “Active”.

**Q.** And the zone of inhibition at 100 µg/mL [2]?
**A.** Its zone of inhibition at 100 µg/mL is 15 mm.

**Q.** What about the “growth inhibition (GI)” value [3] of the same compound?
**A.** Its value is “Active”.

**Q.** And the “growth inhibition (GI)” value [4]?
**A.** Its value is “Active”.

**Q.** What about the “growth inhibition (GI)” value [5] of the same compound?
**A.** The value was “Active”.

**Q.** What about the “growth inhibition (GI)” value [6] of the same compound?
**A.** The value was “Active”.

**Q.** And the “growth inhibition (GI)” value [7]?
**A.** The value was “Active”.

**Q.** What about the “growth inhibition (GI)” value [8] of the same compound?
**A.** Its value is “Active”.

**Q.** And the “growth inhibition (GI)” value [9]?
**A.** The value was “Active”.

**Q.** And the “growth inhibition (GI)” value [10]?
**A.** The value was “Active”.

**Q.** What about the “growth inhibition (GI)” value [11] of the same compound?
**A.** The value was “Active”.

**Q.** What about the “growth inhibition (GI)” value [12] of the same compound?
**A.** The value was “Active”.

**Q.** What about the “growth inhibition (GI)” value [13] of the same compound?
**A.** The value was “Active”.

Source: ChEMBL document CHEMBL4004849, “Tetrazolylmethyl quinolines: Design, docking studies, synthesis, anticancer and antifungal analyses” (2017)
